Results published in patent US7871999B2, “Substituted thiazoles and their use for producing drugs” (Gruenenthal GmbH, priority 2005, dated 2011).
Structures can show the parent of a compound that is named as a salt.

biological target: T1, mGluR5 receptor (Sus scrofa, UniProt I3LUI7); experiment: Inhibition of [^3H]-MPEP binding in the mGluR5 receptor binding assay (pig brain homogenate); details: 5 nM [^3H]-MPEP
T1 construct: pig brain hemispheres without medulla, cerebellum and pons ... differential centrifugation at 900×g and 40,000×g
T1 sequence (I3LUI7 1-1212): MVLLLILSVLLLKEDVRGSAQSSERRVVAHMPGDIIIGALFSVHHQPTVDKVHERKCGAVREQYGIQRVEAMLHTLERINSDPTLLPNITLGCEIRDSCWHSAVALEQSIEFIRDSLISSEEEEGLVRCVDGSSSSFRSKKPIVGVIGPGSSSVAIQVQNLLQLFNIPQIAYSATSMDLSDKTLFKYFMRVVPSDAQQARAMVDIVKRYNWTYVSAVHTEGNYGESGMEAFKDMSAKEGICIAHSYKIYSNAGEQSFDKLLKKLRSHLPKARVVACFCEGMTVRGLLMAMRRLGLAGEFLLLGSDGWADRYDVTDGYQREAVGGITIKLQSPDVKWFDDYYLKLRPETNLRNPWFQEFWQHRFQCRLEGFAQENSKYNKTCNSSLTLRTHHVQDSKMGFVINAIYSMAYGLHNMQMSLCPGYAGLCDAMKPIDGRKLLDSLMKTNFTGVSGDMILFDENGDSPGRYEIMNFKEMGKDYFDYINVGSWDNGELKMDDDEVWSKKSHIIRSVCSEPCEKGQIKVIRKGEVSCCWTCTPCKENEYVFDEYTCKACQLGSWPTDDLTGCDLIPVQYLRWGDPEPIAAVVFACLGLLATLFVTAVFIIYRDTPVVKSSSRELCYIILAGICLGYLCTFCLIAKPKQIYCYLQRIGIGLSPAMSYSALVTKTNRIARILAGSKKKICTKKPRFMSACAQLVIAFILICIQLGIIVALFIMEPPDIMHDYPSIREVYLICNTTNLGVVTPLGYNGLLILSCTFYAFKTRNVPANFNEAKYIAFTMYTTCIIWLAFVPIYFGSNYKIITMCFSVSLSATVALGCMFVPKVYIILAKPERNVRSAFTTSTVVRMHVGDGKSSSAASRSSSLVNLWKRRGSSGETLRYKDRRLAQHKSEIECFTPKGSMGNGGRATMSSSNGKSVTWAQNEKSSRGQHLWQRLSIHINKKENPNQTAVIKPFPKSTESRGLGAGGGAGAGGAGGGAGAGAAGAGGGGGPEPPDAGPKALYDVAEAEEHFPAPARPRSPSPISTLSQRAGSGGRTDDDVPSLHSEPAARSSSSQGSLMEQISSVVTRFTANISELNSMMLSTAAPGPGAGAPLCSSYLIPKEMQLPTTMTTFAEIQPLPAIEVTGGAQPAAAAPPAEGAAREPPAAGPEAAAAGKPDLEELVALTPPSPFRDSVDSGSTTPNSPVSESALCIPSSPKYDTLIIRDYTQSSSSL
Description: I. Method for Determining the Inhibition of [^3H]-MPEP Binding in the mGluR5 Receptor Binding Assay […]
The batches are then filtered with the assistance of a Brandel Cell Harvester (Brandel, Robotic 9600 model) on Unifilter plates with glass filter mats (Perkin Elmer, order number 6005177) and then washed 3 times with buffer (as above) using 250 μl per sample. The filter plates are then dried for 60 min at 55° C. Then 30 μl of Ultima Gold™ scintillating material (Packard BioScience, order number 6013159) is added per well and after 3 hours the samples are measured using the β counter (Microbeta, Perkin Elmer). Nonspecific binding is determined by the addition of 10 μM MPEP (Tocris, order number 1212).

SMILES | IC50 [nM]
CN(C(=O)C#Cc1ccccc1)C1CCN(c2nccs2)C1 (stereo not drawn) [Example 2, N-methyl-3-phenyl-N-(1-(thiazol-2-yl)pyrrolidin-3-yl)propiolamide hydrochloride] | 1320
O=C(C#Cc1ccccc1)N1CCCN(c2nccs2)CC1 [Example 3, 1-Thiazol-2-yl-4-(3-phenylpropioloyl)-1,4-diazepane] | 590
O=C(C#Cc1ccccc1)NCCNc1nccs1 [Example 5, N-(2-((thiazol-2-yl)amino)ethyl)-3-phenylpropiolamide] | 1580
O=C(C#Cc1ccccc1)NC1CN(c2nccs2)C1 [Example 8, 3-Phenyl-N-(1-(thiazol-2-yl)azetidin-3-yl)propiolamide] | 10200
CN(CCNc1nccs1)C(=O)C#Cc1ccccc1 [Example 10, N-methyl-N-(2-(thiazol-2-yl)amino)ethyl-3-phenylpropiolamide] | 1860
O=C(C#Cc1ccccc1)N1CCC(Nc2nccs2)C1 (stereo not drawn) [Example 11, 3-(Thiazol-2-yl-amino)-1-(3-phenylpropioloyl)pyrrolidine] | 2180
CN(CC(=O)N(C)c1nccs1)C(=O)C#Cc1ccccc1 [Example 14, N-Methyl-N-(2-(methyl(thiazol-2-yl)amino)-2-oxoethyl)-3-phenylpropiolamide] | 4970
CN(C(=O)C#Cc1ccccc1)C1CCCN(c2nccs2)C1 (stereo not drawn) [Example 16, N-methyl-N-(1-(thiazol-2-yl)piperidin-3-yl)-3-phenylpropiolamide] | 140
CN(CCN(C)c1nccs1)C(=O)C#Cc1ccccn1 [Example 17, N-Methyl-N-(2-(methyl(thiazol-2-yl)amino)ethyl)-3-(pyrid-2-yl)-propiolamide] | 1250
CN(C(=O)C#Cc1ccccc1)C1CN(c2nccs2)C1 [Example 20, N-methyl-N-(1-(thiazol-2-yl)azetidin-3-yl)-3-phenylpropiolamide] | 280
Cc1cccc(C#CC(=O)NCCN(C)c2nccs2)c1 [Example 21, N-(2-(methyl(thiazol-2-yl)amino)ethyl)-3-(tol-3-yl)-propiolamide] | 8.3
CN(c1nccs1)C1CCN(C(=O)C#Cc2ccccc2)C1 (stereo not drawn) [Example 22, 3-(Methyl(thiazol-2-yl)amino)-1-(3-phenylpropioloyl)pyrrolidine] | 350
CN(CCNC(=O)C#Cc1cccc(Cl)c1)c1nc2ccccc2s1 [Example 24, N-(2-(benzo[d]thiazol-2-yl(methyl)amino)ethyl)-3-(3-chlorophenyl)-propiolamide] | 2780
CCOC(=O)c1cnc(N(C)CCNC(=O)C#Cc2cccc(Cl)c2)s1 [Example 25, N-(2-(methyl-(5-ethoxycarbonylthiazol-2-yl)amino)ethyl)-3-(3-chlorophenyl)-propiolamide] | 150
CN(c1nccs1)C1CCCN(C(=O)C#Cc2ccccc2)C1 (stereo not drawn) [Example 28, 3-(methyl-(thiazol-2-yl)-amino)-1-(3-phenylpropioloyl)piperidine] | 1150
Cc1csc(N(C)CCNC(=O)C#Cc2cccc(Cl)c2)n1 [Example 29, N-(2-(methyl-(4-methylthiazol-2-yl)amino)ethyl)-3-(3-chlorophenyl)-propiolamide] | 27
Cc1cnc(N(C)CCNC(=O)C#Cc2cccc(Cl)c2)s1 [Example 30, 3-(3-Chlorophenyl)-N-(2-(methyl(5-methylthiazol-2-yl)amino)ethyl)propiolamide] | 77
CN(CCNC(=O)C#Cc1cccc(Cl)c1)c1ncc(Br)s1 [Example 31, N-(2-((5-Bromothiazol-2-yl)(methyl)amino)ethyl)-3-(3-chlorophenyl)propiolamide] | 13

Further lines, results first:

IC50 [nM] | SMILES
20 | COC(=O)c1cnc(N(C)CCNC(=O)C#Cc2cccc(Cl)c2)s1 [Example 34, methyl 2-((2-(3-(3-chlorophenyl)-propiolamido)ethyl)(methyl)amino)thiazole-5-carboxylate]
22 | CN(C(=O)C#Cc1cccc(Cl)c1)C1CCCN(c2nccs2)C1 (stereo not drawn) [Example 36, 3-(3-Chlorophenyl)-N-methyl-N-(1-(thiazol-2-yl)piperidin-3-yl)propiolamide]
9.5 | CN(CCNC(=O)C#Cc1cccc(Cl)c1)c1nc(Cl)cs1 [Example 37, 3-(3-chlorophenyl)-N-(2-((4-chlorothiazol-2-yl)(methyl)amino)ethyl)propiolamide]
160 | CN(CCNC(=O)C#Cc1cccc(Cl)c1)c1ncc(Cl)s1 [Example 38, 3-(3-chlorophenyl)-N-(2-((5-chlorothiazol-2-yl)(methyl)amino)ethyl)-propiolamide]
390 | O=C(C#Cc1cccc(Cl)c1)NC1CN(c2nccs2)C1 [Example 39, 3-(3-chlorophenyl)-N-(1-(thiazol-2-yl)azetidin-3-yl)-propiolamide]
17 | CN(C(=O)C#Cc1cccc(Cl)c1)C1CN(c2nccs2)C1 [Example 40, 3-(3-chlorophenyl)-N-methyl-N-(1-(thiazol-2-yl)azetidin-3-yl)-propiolamide]
4.1 | CCN(CCNC(=O)C#Cc1cccc(Cl)c1)c1nccs1 [Example 41, 3-(3-Chlorophenyl)-N-(2-(ethyl(thiazol-2-yl)amino)ethyl)propiolamide]
220 | CN(CCNC(=O)C#Cc1cccc(Cl)c1)c1ncc(C#N)s1 [Example 42, 3-(3-chlorophenyl)-N-(2-((5-cyanothiazol-2-yl)(methyl)amino)ethyl)propiolamide]
74 | CN(c1ncc(F)s1)C1CN(C(=O)C#Cc2cccc(Cl)c2)C1 [Example 43, 1-(3-(3-Chlorophenyl)propioloyl)-3-(methyl(5-fluorothiazol-2-yl)amino)azetidine]
71 | CN(c1ncc(F)s1)C1CCN(C(=O)C#Cc2cccc(Cl)c2)C1 (stereo not drawn) [Example 44, 1-(3-(3-Chlorophenyl)propioloyl)-3-(methyl(5-fluorothiazol-2-yl)amino)pyrrolidine]

same assay, conditions: 1 μM test compound, 5 nM [^3H]-MPEP

SMILES | inhibition at 1 µM [%]
Cc1csc(N2CCC(NC(=O)C#Cc3ccccc3)C2)n1 (stereo not drawn) [Example 45, N-(1-(4-methylthiazol-2-yl)pyrrolidin-3-yl)-3-phenylpropiolamide] | 59
COc1cccc(C#CC(=O)NC2CCN(c3nc(C)cs3)C2)c1 (stereo not drawn) [Example 46, 3-(3-methoxyphenyl)-N-(1-(4-methylthiazol-2-yl)pyrrolidin-3-yl)propiolamide] | 48
Cc1nc(N2CCC(NC(=O)C#Cc3ccccc3)C2)sc1C (stereo not drawn) [Example 51, N-(1-(4,5-dimethylthiazol-2-yl)pyrrolidin-3-yl)-3-phenylpropiolamide] | 48
COc1ccc(C#CC(=O)NC2CCN(c3nc(C(C)(C)C)cs3)C2)cc1 (stereo not drawn) [Example 55, N-(1-(4-tert.-butylthiazol-2-yl)pyrrolidin-3-yl)-3-(4-methoxyphenyl)propiolamide] | 26
Cc1ccc(C#CC(=O)NC2CCN(c3nc(C(C)(C)C)cs3)C2)cc1 (stereo not drawn) [Example 56, N-(1-(4-tert.-butylthiazol-2-yl)pyrrolidin-3-yl)-3-p-tolylpropiolamide] | 37
CC(C)(C)c1csc(N2CCC(NC(=O)C#Cc3ccc(F)cc3)C2)n1 (stereo not drawn) [Example 57, N-(1-(4-tert.-butylthiazol-2-yl)pyrrolidin-3-yl)-3-(4-fluorophenyl)propiolamide] | 26
CC(C)(C)c1csc(N2CCC(NC(=O)C#Cc3cccc(F)c3)C2)n1 (stereo not drawn) [Example 59, N-(1-(4-tert.-butylthiazol-2-yl)pyrrolidin-3-yl)-3-(3-fluorophenyl)propiolamide] | 34
CC(C)(C)c1csc(N2CCC(NC(=O)C#Cc3ccccc3)C2)n1 (stereo not drawn) [Example 60, N-(1-(4-tert.-butylthiazol-2-yl)pyrrolidin-3-yl)-3-phenylpropiolamide] | 30
CC(C)(C)c1csc(N2CCC(NC(=O)C#Cc3ccccc3F)C2)n1 (stereo not drawn) [Example 61, N-(1-(4-tert.-butylthiazol-2-yl)pyrrolidin-3-yl)-3-(2-fluorophenyl)propiolamide] | 28
Cc1csc(N2CCC(NC(=O)C#Cc3cccc(F)c3)C2)n1 (stereo not drawn) [Example 67, 3-(3-fluorophenyl)-N-(1-(4-methylthiazol-2-yl)pyrrolidin-3-yl)propiolamide] | 76
Cc1csc(N2CCC(NC(=O)C#Cc3ccccc3F)C2)n1 (stereo not drawn) [Example 70, 3-(2-fluorophenyl)-N-(1-(4-methylthiazol-2-yl)pyrrolidin-3-yl)propiolamide] | 50
Cc1csc(N2CCC(NC(=O)C#Cc3cccc(C(F)(F)F)c3)C2)n1 (stereo not drawn) [Example 71, N-(1-(4-methylthiazol-2-yl)pyrrolidin-3-yl)-3-(3-(trifluoromethyl)phenyl)-propiolamide] | 59
Cc1cccc(C#CC(=O)NC2CCN(c3nc(C)cs3)C2)c1 (stereo not drawn) [Example 72, N-(1-(4-methylthiazol-2-yl)pyrrolidin-3-yl)-3-m-tolylpropiolamide] | 87

same assay, conditions: 10 μM test compound, 5 nM [^3H]-MPEP

SMILES | inhibition at 10 µM [%]
O=C(C#Cc1ccccc1)NC1CCN(c2nccs2)C1 (stereo not drawn) [Example 1, 3-Phenyl-N-(1-(thiazol-2-yl)pyrrolidin-3-yl)propiolamide] | 66
O=C(C#Cc1ccccc1)NC1CCCCC1Nc1nccs1 (stereo not drawn) [Example 6, 3-phenyl-N-(2-(thiazol-2-ylamino)cyclohexyl)propiolamide] | 57
CN(C(=O)C#Cc1ccccc1)C1CCCCC1N(C)c1nccs1 (stereo not drawn) [Example 12, N-Methyl-N-(2-(methyl(thiazol-2-yl)amino)cyclohexyl)-3-phenylpropiolamide] | 41
O=C(C#Cc1ccccc1)N1CCCC(Nc2nccs2)C1 (stereo not drawn) [Example 27, 3-(thiazol-2-yl-amino)-1-(3-phenylpropioloyl)piperidine] | 19
